Laboratory results: patent publication US8906826B2, “Herbicidal compositions comprising 4-amino-3-chloro-5-fluoro-6-(4-chloro-2-fluoro-3-methoxyphenyl) pyridine-2-carboxylic acid or a derivative thereof and imidazolinones” (Dow AgroSciences, LLC, priority 2012, dated 2014)

Columns and labels:
DIGSA = experiment: Postemergence foliar-applied, direct seeded rice weeds (Example I); format: in vivo, Digitaria sanguinalis (L.) Scop.; details: Compound A n-Butyl Ester 16 gae/ha
Excerpt: (§1) Seeds or nutlets of the desired test plant species were planted in a soil matrix prepared by mixing a loam or sandy loam soil (e.g., 28.6 percent silt, 18.8 percent clay, and 52.6 percent sand, with a pH of about 5.8 and an organic matter content of about 1.8 percent) and calcareous grit in an 80 to 20 ratio. The soil matrix was contained in plastic pots with a volume of 1 quart and a surface area of 83.6 cm^2. When required to ensure good germination and healthy plants, a fungicide treatment and/or other chemical or physical treatment was applied. The plants were grown for 8-22 days in a greenhouse with an approximate 14 h photoperiod which was maintained at about 29° C. during the day and 26° C. during the night. Nutrients (Peters Excel® 15-5-15 5-Ca 2-Mg and iron chelate) were applied in the irrigation solution as needed and water was added on a regular basis. Supplemental lighting was provided with overhead metal halide 1000-Watt lamps as necessary. The plants were employed for testing when they reached the first through fourth true leaf stage.
(§2) Treatments consisted of the acid or esters of 4-amino-3-chloro-5-fluoro-6-(4-chloro-2-fluoro-3-methoxy-phenyl)pyridine-2-carboxylic acid (Compound A), each formulated as an SC (suspension concentrate), and various herbicidal components alone and in combination. Forms of compound A were applied on an acid equivalent basis.
(§3) Other herbicidal components were applied on an acid equivalent basis and include acetolactate synthase (ALS)-inhibiting herbicides (imidazolinone chemical class) imazethapyr ammonium salt formulated as Newpath®, imazamox ammonium salt formulated as Beyond®, imazapic ammonium salt formulated as Plateau®, imazapyr isopropylamine salt formulated as Arsenal®, imazamethabenz-methyl (technical material) and imazaquin isopropylamine salt formulated as Scepter®/Imagine®.
(§4) Treatment requirements were calculated based upon the rates being tested, the concentration of active ingredient or acid equivalent in the formulation, and a 12 mL application volume at a rate of 187 L/ha.
For treatments comprised of formulated compounds, measured amounts of compounds were placed individually in 25 mL glass vials and diluted in a volume of 1.25% (v/v) Agri-Dex® crop oil concentrated to obtain 12× stock solutions. […]
(§5) For treatments comprised of formulated and technical compounds, weighed amounts of the technical materials were placed individually in 25 mL glass vials and dissolved in a volume of 97:3 v/v acetone/DMSO to obtain 12× stock solutions, and measured amounts of the formulated compounds were placed individually in 25 mL glass vials and diluted in a volume of 1.5% (v/v) crop oil concentrate or water to obtain 12× stock solutions. […]

IPOHE = experiment: as above; format: in vivo, Ipomoea hederacea Jacq.
Excerpt: as §1, §2, §3, §4
(§6) For treatments comprised of formulated compounds, measured amounts of compounds were placed individually in 25 mL glass vials and diluted in a volume of 1.25% (v/v) Agri-Dex® crop oil concentrated to obtain 12× stock solutions. […] Application solutions were prepared by adding an appropriate amount of each stock solution (e.g., 1 mL) and diluted to the appropriate final concentrations with the addition of 10 mL of an aqueous mixture of 1.25% (v/v) crop oil concentrate so that the final spray solutions contained 1.25+/−0.05% (v/v) crop oil concentrate.
(§7) For treatments comprised of technical compounds, weighed amounts can be placed individually in 25 mL glass vials and dissolved in a volume of 97:3 v/v acetone/DMSO to obtain 12× stock solutions. […] Application solutions can be prepared by adding an appropriate amount of each stock solution (e.g., 1 mL) and diluted to the appropriate final concentrations with the addition of 10 mL of an aqueous mixture of 1.5% (v/v) crop oil concentrate so that the final spray solutions contain 1.25% (v/v) crop oil concentrate. When technical materials are used, the concentrated stock solutions can be added to the spray solutions so that the final acetone and DMSO concentrations of the application solutions are 16.2% and 0.5%, respectively.
as §5

ECHOR = experiment: In-water applied, transplanted paddy rice weeds (Example II); format: in vivo, Echinochloa oryzoides (Ard.) Fritsch
Protocol: (§8) Weed seeds or nutlets of the desired test plant species were planted in puddled soil (mud) prepared by mixing a shredded, non-sterilized mineral soil (50.5 percent silt, 25.5 percent clay, and 24 percent sand, with a pH of about 7.6 and an organic matter content of about 2.9 percent) and water at a 1:1 volumetric ratio. The prepared mud was dispensed in 365 mL aliquots into 16-ounce (oz.) non-perforated plastic pots with a surface area of 86.59 square centimeters (cm^2) leaving a headspace of 3 centimeters (cm) in each pot. Mud was allowed to dry overnight prior to planting or transplanting. Rice seeds were planted in Sun Gro MetroMix® 306 planting mixture, which typically has a pH of about 6.0 to about 6.8 and an organic matter content of about 30 percent, in plastic plug trays. Seedlings at the second or third leaf stage of growth were transplanted into 860 mL of mud contained in 32-oz. non-perforated plastic pots with a surface area of 86.59 cm^2 4 days prior to herbicide application. The paddy was created by filling the headspace of the pots with 2.5 to 3 cm of water. When required to ensure good germination and healthy plants, a fungicide treatment and/or other chemical or physical treatment was applied. The plants were grown for 4-22 days in a greenhouse with an approximate 14 h photoperiod which was maintained at about 29° C. during the day and about 26° C. during the night. Nutrients were added as Osmocote® (19:6:12, N:P:K+minor nutrients) at 2 g per 16-oz. pot and 4 g per 32-oz. pot. Water was added on a regular basis to maintain the paddy flood, and supplemental lighting was provided with overhead metal halide 1000-Watt lamps as necessary. The plants were employed for testing when they reached the first through fourth true leaf stage.
Treatments consisted of the acid or esters of 4-amino-3-chloro-5-fluoro-6-(4-chloro-2-fluoro-3-methoxy-phenyl)pyridine-2-carboxylic acid (compound A) each formulated as an SC and various herbicidal components alone and in combination. Forms of compound A were applied on an acid equivalent basis.
as §3, with “included the” for “include”, “(ALS)-inhibiting imidazolinone” for “(ALS)-inhibiting”, “herbicides” for “herbicides (imidazolinone chemical class)”, “material),” for “material)”, “Scepter®.” for “Scepter®/Imagine®.”
(§9) Treatment requirements for each compound or herbicidal component were calculated based upon the rates being tested, the concentration of active ingredient or acid equivalent in the formulation, an application volume of 2 mL per component per pot, and an application area of 86.59 cm^2 per pot.
For formulated compounds, a measured amount was placed in an individual 100 or 200 mL glass vial and was dissolved in a volume of 1.25% (v/v) Agri-Dex® crop oil concentrate to obtain application solutions.
For technical grade compounds, a weighed amount was placed in an individual 100 to 200 mL glass vial and was dissolved in a volume of acetone to obtain concentrated stock solutions. […] The concentrated stock solutions obtained were diluted with an equivalent volume of an aqueous mixture containing 2.5% (v/v) crop oil concentrate so that the final application solutions contained 1.25% (v/v) crop oil concentrate.
Applications were made by injecting with a pipetter appropriate amounts of the application solutions, individually and sequentially, into the aqueous layer of the paddy. Control plants were treated in the same manner with the solvent blank. Applications were made so that all treated plant material received the same concentrations of acetone and crop oil concentrate.
The treated plants and control plants were placed in a greenhouse as described above and water was added as needed to maintain a paddy flood. […]

CYPRO = experiment: as above; format: in vivo, Cyperus rotundus L.; details: Imazapyr IPA 70 gae/ha
Protocol: as §8, with “Water was added on a regular basis to maintain the paddy flood, and supplemental lighting was provided with overhead metal halide 1000-Watt lamps as necessary. The plants were employed for testing when they reached the first through fourth true leaf stage.” left out
as §9
For formulated compounds, a measured amount was placed in an individual 100 or 200 mL glass vial and was dissolved in a volume of 1.25% (v/v) Agri-Dex® crop oil concentrate to obtain application solutions. […]

CIRAR = experiment: Postemergence herbicidal activity in cereal crops, greenhouse (Example V); format: in vivo, Cirsium arvense (L.) Scop.; details: Imazamethabenz-methyl 200 gai/ha
Protocol: (§10) Seeds of the desired test plant species were planted in Sun Gro MetroMix® 306 planting mixture, which typically has a pH of 6.0 to 6.8 and an organic matter content of about 30 percent, in plastic pots with a surface area of 103.2 square centimeters (cm^2). When required to ensure good germination and healthy plants, a fungicide treatment and/or other chemical or physical treatment was applied. The plants were grown for 7-36 days in a greenhouse with an approximate 14 hour photoperiod which was maintained at about 18° C. during the day and about 17° C. during the night. Nutrients and water were added on a regular basis and supplemental lighting was provided with overhead metal halide 1000-Watt lamps as necessary. The plants were employed for testing when they reached the second or third true leaf stage.
(§11) Treatments consisted of the benzyl ester of 4-amino-3-chloro-5-fluoro-6-(4-chloro-2-fluoro-3-methoxy-phenyl)pyridine-2-carboxylic acid (Compound A), formulated as an SC, a second cereal herbicide alone and then both in combination.
(§12) Other herbicidal components were applied on an acid equivalent basis and include acetolactate synthase (ALS)-inhibiting herbicides (imidazolinone chemical class) imazamethabenz-methyl formulated as Assert®. Spray solutions of the second cereal herbicide and experimental compound mixtures were prepared by adding the stock solutions to the appropriate amount of dilution solution to form 12 mL spray solution with active ingredients in two- and three-way combinations. […]
(§13) The treated plants and control plants were placed in a greenhouse as described above and watered by sub-irrigation to prevent wash-off of the test compounds. After 20-22 days, the condition of the test plants as compared with that of the control plants was determined visually and scored on a scale of 0 to 100 percent where 0 corresponds to no injury and 100 corresponds to complete kill. […]

CYPIR = experiment: Postemergence foliar-applied, direct seeded rice weeds (Example I); format: in vivo, Cyperus iria L.
Excerpt: as §1, §2, §3, §4, §6, §7, §5

CHEAL = experiment: Postemergence herbicidal activity in cereal crops, greenhouse (Example V); format: in vivo, Chenopodium album L.; details: Imazamethabenz-methyl 200 gai/ha
Protocol: as §10, §11, §12, §13

VERPE = experiment: as above; format: in vivo, Veronica persica Poir.; details: Imazamethabenz-methyl 200 gai/ha
Protocol: as §10, §11, §12, §13

SINAR = experiment: as above; format: in vivo, Sinapis arvensis L.; details: Imazamethabenz-methyl 200 gai/ha
Protocol: as §10, §11, §12, §13

SASKR = experiment: as above; format: in vivo, Salsola iberica L.; details: Imazamethabenz-methyl 200 gai/ha
Protocol: as §10, §11, §12, §13

PAPRH = experiment: as above; format: in vivo, Papaver rhoeas L.; details: Imazamethabenz-methyl 200 gai/ha
Protocol: as §10, §11, §12, §13

CCCCOC(=O)c1nc(-c2ccc(Cl)c(OC)c2F)c(F)c(N)c1Cl [Compound A n-Butyl Ester]
Visual Weed Control (%) - 20 DAA DIGSA Obs (DIGSA): 15%

CC(C)C1(C)N=C(c2ncccc2C(=O)O)NC1=O (stereo not drawn) [Imazapyr IPA, 2-[4,5-dihydro-4-methyl-4-(1-methylethyl)-5-oxo-1H-imidazol-2-yl]-3-pyridinecarboxylic acid compound with 2-propanamine, reference compound]
Visual Weed Control (%) - 21 DAA IPOHE Obs (IPOHE; Imazapyr IPA 4.38 gae/ha): 50% | Visual Weed Control (%) - 21 DAA IPOHE Obs (IPOHE; Imazapyr IPA 8.75 gae/ha): 40% | Visual Weed Control (%) - 22 DAA ECHOR Obs (ECHOR; Imazapyr IPA 70 gae/ha): 50% | Visual Weed Control (%) - 22 DAA ECHOR Obs (ECHOR; Imazapyr IPA 140 gae/ha): 85% | Visual Weed Control (%) - 22 DAA CYPRO Obs (CYPRO): 70%

CC(C)C1(C)N=C(c2nc3ccccc3cc2C(=O)O)NC1=O (racemic) [Imazaquin IPA, (±)-2-[4,5-dihydro-4-methyl-4-(1-methylethyl)-5-oxo-1H-imidazol-2-yl]-3-quinolinecarboxylic acid with 2-propanamine, reference compound]
Visual Weed Control (%) - 21 DAA IPOHE Obs (IPOHE; Imazaquin IPA 9 gae/ha): 0% | Visual Weed Control (%) - 21 DAA IPOHE Obs (IPOHE; Imazaquin IPA 18 gae/ha): 10% | Visual Weed Control (%) - 21 DAA IPOHE Obs (IPOHE; Imazaquin IPA 36 gae/ha): 0%

methyl 2-[4,5-dihydro-4-methyl-4-(1-methylethyl)-5-oxo-1H-imidazol-2-yl]-4-methylbenzoic acid or methyl 2-[4,5-dihydro-4-methyl-4-(1-methylethyl)-5-oxo-1H-imidazol-2-yl]-5-methylbenzoic acid or mixtures thereof [Imazamethabenz-methyl, reference compound]
Visual Weed Control (%) - 21 DAA CIRAR Obs (CIRAR): 0% | Visual Weed Control (%) - 22 DAA CYPIR Obs (CYPIR; Imazamethabenz-methyl 43.75 gai/ha): 0% | Visual Weed Control (%) - 22 DAA CYPIR Obs (CYPIR; Imazamethabenz-methyl 87.5 gai/ha): 20% | Visual Weed Control (%) - 22 DAA CYPIR Obs (CYPIR; Imazamethabenz-methyl 175 gai/ha): 25% | Visual Weed Control (%) - 21 DAA CHEAL Obs (CHEAL): 0% | Visual Weed Control (%) - 21 DAA VERPE Obs (VERPE): 0% | Visual Weed Control (%) - 21 DAA SINAR Obs (SINAR): 70% | Visual Weed Control (%) - 21 DAA SASKR Obs (SASKR): 70% | Visual Weed Control (%) - 21 DAA PAPRH Obs (PAPRH): 0%
